Source: patent US6339045B1, “N-(unsubstituted or substituted)-4-substituted-6-(unsubstituted or substituted)phenoxy-2-pyridinecarboxamides or thiocarboxamides, processes for producing the same, and herbicides” (Kureha Kagaku Kogyo Kabushiki Kaisha, priority 1995, dated 2002)

Columns and labels:
Assay in all cases: Herbicidal effect by foliage and soil treatment
Assay type in all cases: in vivo
Conditions in all cases: 10 g ai/10a, evaluated after 14 days
[1] = test system: black nightshade (Solanum nigrum)
How it was run: (§1)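 Seedlings grown in granular soil in a 19–25 °C greenhouse to the cotyledon–two-leaf stage were sprayed over foliage and soil with compound in Tween 20/water at a set application rate. Growth was scored on a rating scale against untreated plants after 14 days.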

[2] = test system: cleavers (Galium aparine)
How it was run: as §1

[3] = test system: common blackjack (Bidens pilosa)
How it was run: as §1

[4] = test system: common chickweed (Stellaria media)
How it was run: as §1

[5] = test system: field bindweed (Convolvulus arvensis)
How it was run: as §1

[6] = test system: ivyleafspeedwell (Veronica hederaefolia)
How it was run: as §1

[7] = test system: kediock (Sinapis arvensis)
How it was run: as §1

[8] = test system: redroot pigweed (Amaranthus retroflexus)
How it was run: as §1

[9] = test system: sicklepod (Cassia obtusifolia)
How it was run: as §1

[10] = test system: velvetleaf (Abutilon theophrasti)
How it was run: as §1

[11] = test system: wild chamomile (Matricaria chamomilla)
How it was run: as §1

SMILES | herbicidal activity rating, SN (Solanum nigrum) [1] | herbicidal activity rating, GA (Galium aparine) [2] | herbicidal activity rating, BP (Bidens pilosa) [3] | herbicidal activity rating, SM (Stellaria media) [4] | herbicidal activity rating, CA (Convolvulus arvensis) [5] | herbicidal activity rating, VH (Veronica hederaefolia) [6] | herbicidal activity rating, SA (Sinapis arvensis) [7] | herbicidal activity rating, AR (Amaranthus retroflexus) [8] | herbicidal activity rating, CO (Cassia obtusifolia) [9] | herbicidal activity rating, AT (Abutilon theophrasti) [10] | herbicidal activity rating, MC (Matricaria chamomilla) [11]
COc1cc(Oc2cccc(C(F)(F)F)c2)nc(C(=O)NCCS(C)(=O)=O)c1 [Compound I-63] | 5 (percentage of weeds killed was not less than 80%) | 5 (percentage of weeds killed was not less than 80%) | 4 (percentage of weeds killed was not less than 60% and less than 80%) | 5 (percentage of weeds killed was not less than 80%) | 5 (percentage of weeds killed was not less than 80%) | 5 (percentage of weeds killed was not less than 80%) | 5 (percentage of weeds killed was not less than 80%) | 5 (percentage of weeds killed was not less than 80%) | 5 (percentage of weeds killed was not less than 80%) | 4 (percentage of weeds killed was not less than 60% and less than 80%) | 4 (percentage of weeds killed was not less than 60% and less than 80%)
CCSCCNC(=O)c1cc(OC)cc(Oc2cccc(C(F)(F)F)c2)n1 [Compound I-67, N-{2-(ethylmercapto)ethyl}-4-methoxy-6-{3-(trifluoromethyl)phenoxy}-2-pyridine carboxamide] | 5 (percentage of weeds killed was not less than 80%) | 5 (percentage of weeds killed was not less than 80%) | 3 (percentage of weeds killed was not less than 40% and less than 60%) | 4 (percentage of weeds killed was not less than 60% and less than 80%) | 5 (percentage of weeds killed was not less than 80%) | 5 (percentage of weeds killed was not less than 80%) | 5 (percentage of weeds killed was not less than 80%) | 5 (percentage of weeds killed was not less than 80%) | 5 (percentage of weeds killed was not less than 80%) | 4 (percentage of weeds killed was not less than 60% and less than 80%) | 3 (percentage of weeds killed was not less than 40% and less than 60%)
COc1cc(Oc2cccc(C(F)(F)F)c2)nc(C(=O)NCCC#N)c1 [Compound I-71] | 5 (percentage of weeds killed was not less than 80%) | 5 (percentage of weeds killed was not less than 80%) | 5 (percentage of weeds killed was not less than 80%) | 5 (percentage of weeds killed was not less than 80%) | 5 (percentage of weeds killed was not less than 80%) | 5 (percentage of weeds killed was not less than 80%) | 5 (percentage of weeds killed was not less than 80%) | 5 (percentage of weeds killed was not less than 80%) | 5 (percentage of weeds killed was not less than 80%) | 4 (percentage of weeds killed was not less than 60% and less than 80%) | 4 (percentage of weeds killed was not less than 60% and less than 80%)
COc1cc(Oc2cccc(C(F)(F)F)c2)nc(C(=O)NCC(C)C)c1 [Compound I-72] | 5 (percentage of weeds killed was not less than 80%) | 5 (percentage of weeds killed was not less than 80%) | 5 (percentage of weeds killed was not less than 80%) | 5 (percentage of weeds killed was not less than 80%) | 5 (percentage of weeds killed was not less than 80%) | 5 (percentage of weeds killed was not less than 80%) | 5 (percentage of weeds killed was not less than 80%) | 5 (percentage of weeds killed was not less than 80%) | 5 (percentage of weeds killed was not less than 80%) | 4 (percentage of weeds killed was not less than 60% and less than 80%) | 5 (percentage of weeds killed was not less than 80%)
CCC(C)NC(=O)c1cc(OC)cc(Oc2cccc(C(F)(F)F)c2)n1 (stereo not shown) [Compound I-73] | 5 (percentage of weeds killed was not less than 80%) | 5 (percentage of weeds killed was not less than 80%) | 4 (percentage of weeds killed was not less than 60% and less than 80%) | 5 (percentage of weeds killed was not less than 80%) | 5 (percentage of weeds killed was not less than 80%) | 5 (percentage of weeds killed was not less than 80%) | 5 (percentage of weeds killed was not less than 80%) | 5 (percentage of weeds killed was not less than 80%) | 5 (percentage of weeds killed was not less than 80%) | 5 (percentage of weeds killed was not less than 80%) | 4 (percentage of weeds killed was not less than 60% and less than 80%)
COc1cc(Oc2cccc(C(F)(F)F)c2)nc(C(=O)NCCF)c1 [Compound I-74] | 5 (percentage of weeds killed was not less than 80%) | 5 (percentage of weeds killed was not less than 80%) | 5 (percentage of weeds killed was not less than 80%) | 5 (percentage of weeds killed was not less than 80%) | 5 (percentage of weeds killed was not less than 80%) | 5 (percentage of weeds killed was not less than 80%) | 5 (percentage of weeds killed was not less than 80%) | 5 (percentage of weeds killed was not less than 80%) | 5 (percentage of weeds killed was not less than 80%) | 5 (percentage of weeds killed was not less than 80%) | 5 (percentage of weeds killed was not less than 80%)
COCCCNC(=O)c1cc(OC)cc(Oc2cccc(C(F)(F)F)c2)n1 [Compound I-75] | 5 (percentage of weeds killed was not less than 80%) | 5 (percentage of weeds killed was not less than 80%) | 3 (percentage of weeds killed was not less than 40% and less than 60%) | 5 (percentage of weeds killed was not less than 80%) | 4 (percentage of weeds killed was not less than 60% and less than 80%) | 5 (percentage of weeds killed was not less than 80%) | 5 (percentage of weeds killed was not less than 80%) | 5 (percentage of weeds killed was not less than 80%) | 5 (percentage of weeds killed was not less than 80%) | 3 (percentage of weeds killed was not less than 40% and less than 60%) | 4 (percentage of weeds killed was not less than 60% and less than 80%)
COc1cc(Oc2cccc(C(F)(F)F)c2)nc(C(=O)NCCCSC)c1 [Compound I-76] | 5 (percentage of weeds killed was not less than 80%) | 5 (percentage of weeds killed was not less than 80%) | 4 (percentage of weeds killed was not less than 60% and less than 80%) | 4 (percentage of weeds killed was not less than 60% and less than 80%) | 3 (percentage of weeds killed was not less than 40% and less than 60%) | 5 (percentage of weeds killed was not less than 80%) | 5 (percentage of weeds killed was not less than 80%) | 5 (percentage of weeds killed was not less than 80%) | 5 (percentage of weeds killed was not less than 80%) | 3 (percentage of weeds killed was not less than 40% and less than 60%) | 5 (percentage of weeds killed was not less than 80%)
